Where two headings read alike, the source gives them in different places.
What was measured:
[1] = test system: Human Immunodeficiency Virus Type 1 (HIV-1); experiment: CPE-inhibition assay with HIV-1 in ATH8 cells; type: cell-based; settings: Human immunodeficiency virus 1, ATH-8, 240 h, read-out: 50% Inhibitory Concentration, Virus Tested: HIV
Description: (§1) The human OKT4^+ T-cell clone, ATH8, was obtained from Dr. Samuel Broder's laboratory (NCI) through Dr. Hiroaki Mitsuya. These cells are propagated in RPMI 1640 medium supplemented with 4 mM glutamine, 15% heat-inactivated fetal bovine serum, antibiotics (50 units of penicillin and 50 μg of streptomycin per ml), and 50 units of recombinant-derived human interleukin-2 (ala-125; AMGen Biologicals) per ml. […]
The testing of compounds for antiviral activity employed the modified CPE-inhibition assay described in Mitsuya, H.; Weinhold, K. J.; Furman, P. A.; St. Clair, M. H.; Lehrman, S. N.; Gallo, R. C.; Bolognesi, D.; Barry, D. W.; Broder, S. Proc. Natl. Acad. Sci. USA, (1985) 82, 7096 and Mitsuya, H.; Broder, S. Proc. Natl. Acad. Sci. USA, 1986, 83 1911. […] The protective effect of test compounds was assessed by adding them at varying concentrations to the cultured cells at the time of virus infection, then monitoring the status of the cell pellet.
(§2) ATH8 cells were used as the primary targeted cells in the HIV-induced CPE-inhibition assay. […] These compounds were evaluated at seven half-log dilutions. […] On day 10 post-infection aliquots were taken from individual wells and the total cell number and cell viability (based on trypan-blue dye exclusion) determined. […]

[2] = test system: Human Cytomegalovirus (HCMV); experiment: HCMV plaque reduction in HFF cells; type: cell-based, HCMV (Towne strain, isolate PO); human foreskin fibroblasts; settings: read-out: 50% Inhibitory Concentration, Virus Tested: HCMV
Description: (§3) KB cells, an established human cell line derived from an epidermoid oral carcinoma, were routinely grown in minimal essential medium (MEM) with Hanks salts [MEM(H)] supplemented with 5% fetal bovine serum. African green monkey kidney (BSC-1) cells and diploid human foreskin fibroblasts (HFF cells) were grown in MEM with Earle's salts [MEM(E)] supplemented with 10% fetal bovine serum. Cells were passaged according to conventional procedures as described in Shipman, C., Jr.; Smith, S. H.; Carlson, R. H.; Drach, J. C. Antimicrob. Agents Chemother., 1976, 9, 120. The plaque-purified isolate, PO, of the Towne strain of HCMV was used in all experiments and was a gift of Dr. Mark Stinski, University of Iowa. The S-148 strain of HSV-1 was provided by Dr. T. W. Schafer of Schering Corp. Stock preparations of HCMV and HSV-1 were prepared and titered as described in Turk, S. R.; Shipman, C., Jr.; Nassari, R.; Genzlinger, G.; Krawczyk, S. H.; Townsend, L. B.; Drach, J. C. Antimicrob. Agents Chemother., 1987, 31, 544.
(§4) HCMV plaque reduction experiments were performed using monolayer cultures of HFF cells by a procedure similar to that referenced above for titration of HCMV, with the exceptions that the virus inoculum (0.2 ml) contained approximately 50 PFU of HCMV and the compounds to be assayed were dissolved in the overlay medium. HSV-1 plaque reduction experiments were performed using monolayer cultures of BSC-1 cells. The assay was performed exactly as referenced above for HSV-1 titration assays except that the 0.2 ml of virus suspension contained approximately 100 PFU of HSV-1 and the compounds to be tested were dissolved in the overlay medium.
(§5) Dose-response relationships were constructed by linearly regressing the percent inhibition of parameters derived in the preceding sections against log drug concentrations. 50% inhibitory (I50) concentrations were calculated from the regression lines. The three I50 concentrations for inhibition of DNA, RNA and protein synthesis were averaged to give the values reported in Table I for KB cell cytotoxicity. Samples containing positive controls (acyclovir, ganciclovir, or vidarabine) were used in all assays. Results from sets of assays were rejected if inhibition by the positive control deviated from its mean response by more than 1.5 standard deviations.

[3] = Visual cytotoxicity in uninfected BSC-1 cells; type: cell-based; settings: african green monkey, visual cytotoxicity scored on uninfected BSC cells at time of HSV1 plaque determination, read-out: 50% Inhibitory Concentration, Cytotoxicity: BSC
Description: as §3
(§6) Two basic tests for cellular cytotoxicity were routinely employed for compounds examined in antiviral assays. Cytotoxicity produced in HFF and BSC-1 cells was estimated by visual scoring of cells not affected by virus infection in the plaque reduction assays described above. Cytopathology was estimated at 35- and 60-fold magnification and scored on a zero to four plus basis on the day of staining for plaque enumeration. Cytotoxicity in KB cells was determined by measuring the effects of compounds on the incorporation of radioactive precursors into DNA, RNA and protein as described in Turk, S. R.; Shipman, C., Jr.; Nassari, R.; Genzlinger, G.; Krawczyk, S. H.; Townsend, L. B.; Drach, J. C. Antimicrob. Agents Chemother., 1987, 31, 544.
as §5
(§7) ^b Visual cytotoxicity scored on uninfected HFF or BSC cells at time
(§8) of HCMV or HSV1 plaque determination.

[4] = Visual cytotoxicity in uninfected HFF cells; type: cell-based; settings: human; visual cytotoxicity scored on uninfected HFF cells at time of HCMV plaque determination; read-out: 50% Inhibitory Concentration, Cytotoxicity: HFF
Description: as §3, §6, §5, §7, §8

[5] = test system: Herpes Virus Type 1 (HSV-1); experiment: HSV-1 plaque reduction in BSC-1 cells; type: cell-based; settings: read-out: 50% Inhibitory Concentration, Virus Tested: HSV-1
Description: as §3, §4, §5
^a In experiments with HSV1 both the HF and 148 strains were used.

[6] = Cytotoxicity in ATH8 cells (total cell number and viability, trypan-blue dye exclusion); type: cell-based; settings: human; uninfected ATH8 cells; read-out: 50% Inhibitory Concentration, Cytotoxicity: ATH8
Description: as §1, with “ml. The clone H9 cell lines, an OKT4^+ human T-cell line which is permissive for HIV replication but largely resistant to virus-induced CPE, H9 cells productively infected with the HTLV-IIIB strain of HIV, and H9 cells productively infected with the RF-II Haitian variant of HIV have been obtained from Dr. Robert Gallo's laboratory (NCI) through Dr. Howard Streicher.” for “ml.”
as §2
Dose-response relationships were constructed by linearly regressing the percent inhibition of parameters derived in the preceding sections against log drug concentrations. 50% inhibitory (I50) concentrations were calculated from the regression lines. […]

[7] = Cytotoxicity in KB cells (inhibition of DNA, RNA and protein synthesis); type: cell-based; settings: human, average of inhibition of DNA, read-out: 50% Inhibitory Concentration, Cytotoxicity: KB
Description: as §3, §6, §5
^c Average percent inhibition of DNA, RNA and protein synthesis
determined in KB cells as described in the text.

[8] = Human alphaherpesvirus 1, BSC-1, in Chlorocebus sabaeus
[9] = Human betaherpesvirus 5, plaque reduction, HFF cells
[10] = Human alphaherpesvirus 1, in Chlorocebus sabaeus, plaque reduction, BSC-1 cells, both the HF and 148 strains were used

SMILES	IC50 [1]	IC50 ([2]; Human betaherpesvirus 5, HFF)	CC50 [3]	CC50 [4]	IC50 [5, 8]	CC50 [6]	CC50 [7]	IC50 [2, 9]	IC50 [5, 10]	IC50 ([1]; ATH8 cells, day 10 post-infection)
NC(=O)c1cn([C@H]2CC[C@@H](CO)O2)c2ncnc(N)c12 [Dideosysangivamycin, 4-amino-7-(2',3'-dideoxy-β-D-ribofuranosyl)pyrrolo[2,3-d]-pyrimidine-5-carboxamide]	3 µM	> 100 µM	> 100 µM	> 100 µM	> 100 µM	100 µM	> 100 µM			
NC(=O)c1cn([C@H]2C=C[C@@H](CO)O2)c2ncnc(N)c12 [Dideoxydidehydrosangivamycin, 4-amino-7-(2',3'-dideoxy-2',3'-didehydro-β-D-ribofuranosyl)-pyrrolo-[2,3-d]pyrimidine-5-carboxamide]		> 100 µM	> 100 µM	> 100 µM	> 100 µM		54 µM			
N#Cc1cn([C@H]2C=C[C@@H](CO)O2)c2ncnc(N)c12 [Dideoxydidehydrotoyocamycin, 4-amino-5-cyano-7-(2',3'-dideoxy-2',3'-didehydro-β-D-glycero-pentofuranosyl)-pyrrolo[2,3-d]pyrimidine]			> 100 µM	> 100 µM			> 100 µM	5.1 µM	41 µM	
Nc1ncnc2c1ccn2[C@H]1C=C[C@@H](CO)O1 [Dideoxydidehydrotubercidin, 4-amino-7(2',3'-dideoxy-2',3'-didehydro-β-ribofuranosyl)-pyrrolo[2,3-d] pyrimidine]			> 100 µM	> 100 µM				> 100 µM	> 100 µM	
N#Cc1cn([C@H]2CC[C@@H](CO)O2)c2ncnc(N)c12 [Dideoxytoyocamycin, 4-amino-5-cyano-7-(2',3'-dideoxy-β-D-ribofuranosyl)-pyrrolo-[2,3-d]-pyrimidine]			> 100 µM	> 100 µM		100 µM	54 µM	18 µM	21 µM	3 µM
Nc1ncnc2c1ccn2[C@H]1CC[C@@H](CO)O1 [Dideoxytubercidin, 4-amino-7-(2',3'-dideoxy-β-D-ribofuranosyl)pyrrolo[2,3-d]-pyrimidine]			> 100 µM	> 100 µM				> 100 µM	> 100 µM	
